# Assay results published in patent US20100190737A1, “COMPOSITIONS COMPRISING INOSINE AND OROTIC ACID AND METHODS OF USE THEREOF FOR THE TREATMENT OF CERTAIN HEART CONDITIONS AND ENHANCEMENT OF WORK CAPACITY” (NUTRITIONAL RESEARCH GROUP LLC, priority 2009, published 2010).
# Values joined by “and” are separate entries in the source; they are usually repeats but may differ in a detail not shown here. Identical values can stand only once.
# Legend:
# mice = test: Short term (14 day) work capacity: swimming lengths within 30 minutes, hepatic glycogen; assay type: in vivo, mouse
# Experimental: Seventy two animals (mice) were divided into 12 groups of 6 animals each; a control group (untreated) and 11 test groups that were intragastrically administered varying daily doses of inosine, potassium orotate or an inosine plus potassium orotate combination (the “combination”) for 14 days. […] The swimming exercise consisted of forcing the animals to perform repetitive swimming in a three meter long channel until exhaustion. The level of exhaustion was determined by a count of the number of swimming lengths which each animal did within 30 minutes. A lower number of swimming lengths indicated a greater level of exhaustion, whereas a higher number of lengths indicated a greater work capacity.
# [1] = tested on: rats with experimental aortic stenosis; test: Long term (12 month) experimental aortic stenosis; assay type: in vivo, rat; details: for Mortality %: 12 month study, 15 rats per group, inosine 25, potassium orotate 50 mg/kg/day from day 45 for 10.5 months, untreated stenosis 47
# Experimental: A 12 month study using 60 white unbred male rats with initial body weights of 110-120 g, divided into four experimental groups, each group with 15 rats. Group I included intact animals (controls); Group II—rats with experimental aortic stenosis (untreated stenosed controls); Group III rats with experimental aortic stenosis given inosine in doses of 25 mg/kg/day; and Group IV rats with experimental aortic stenosis given both inosine and an orotic acid (in the instant study potassium orotate was used, however, as the orotic acid comprises 93-95% percent of any of the orotates, the results achieved are indicative of usage of any of the orotates including the potassium orotate used herein) combination in doses of 25 and 50 mg/kg/day, respectively, intragastrically, using a metal curved tube, beginning from the 45th day after the creation date of the abdominal aortic stenosis, and continuing for 10.5 months. The abdominal aortic stenosis was produced by the method of Beznak, referred to hereinabove, modified by Kogan, referred to above.
# During the experimental period the animals in all four groups had regular measurements (recordings) of body weight and the 3-standard lead EKG-ms and 5-plane pericardial vector-cardiograms (VCG). At the beginning and end of the experimental period they also underwent tests for the endurance of a single, dosed physical exercise—forced swimming in a pool at 28-30° C., until maximally exhausted. Specifically, an animal had fixed to its tail a lead weight weighing approximately 7.5% percent of the animal's body weight became submerged due to the inability to continue swimming. At the end of the experimental period, the animals were sacrificed, and their hearts, thymuses, livers, adrenals and thyroids were weighed and their relative weights per 100 g body weight were calculated and recorded. Histological figures of sectioned cardiac muscle stained with hematoxilin-eosin were prepared by Van Hison's technique and examined for any attendant alterations in the normal histology of the heart. During the experiment, (untreated aortic stenosis) 8 of the 15 rats in Group II died, while in Group III (treated stenosis w/inosine) and Group IV (treated stenosis w/inosine and potassium orotate)—only 3 rats in each group died. […] The observed time period wherein the rats could swim were as follows: Groups I animals 45±2.0 minutes; Group II 6.5±2.1 minutes; Group III 16±1.2 minutes; and Group IV 32±4 minutes, respectively. Thus, the group receiving the combination of inosine and potassium orotate performed far better than Group II (untreated stenosis) and had doubled the work capacity of Group III (treated with inosine only). The relative weight of the heart in animals in Groups II, III and IV was higher than in Group I (control group) by 67%, 36% and 56%, respectively. (See Tables 2 A-B). The hearts of Group II animals were in the state of eccentric hypertrophy which explains the higher weight (see FIG. 5). The left ventricular wall in the animals of Group II was 8% thinner than in rats of Group I as a result of the eccentric condition. In rats of Groups III and IV the left ventricular wall was 30% and 46% thicker, respectively, than the rats in group I and they were all in the state of concentric heart hypertrophy.
smiles,measurement,setting,value
OC[C@H]1O[C@@H](n2cnc3c(O)ncnc32)[C@H](O)[C@@H]1O [inosine],Swimming lengths,"mice; 12.5 mg/kg BW daily for 14 days intragastrically, within 30 minutes, control 24.9",33.9
same,increase in number of swimming lengths,"mice; 12.5 mg/kg/body weight daily, 14 days",35.4%
same,Swimming lengths,"mice; 25 mg/kg BW, 14 days",46.4
same,increase in number of swimming lengths,"mice; 25 mg/kg/body weight daily, 14 days",85.6%
same,Swimming lengths,"mice; 50 mg/kg BW, 14 days",39.6
same,increase in number of swimming lengths,"mice; 50 mg/kg/body weight daily, 14 days",58.5%
same,Swimming lengths,"mice; 100 mg/kg BW, 14 days",31.1
same,increase in number of swimming lengths,"mice; 100 mg/kg/body weight daily, 14 days",24.3%
same,mean decrease of hepatic glycogen stores during the swimming exercise,mice; controls 67.5% from baseline,24.5%
same,increased hepatic glycogen content,"mice; inosine 25 mg/kg, potassium orotate 50 mg/kg, or combination",21%
same,EKG QRS 1½ months,[1]; 1½ months (before treatment),0.021 ± 0.004 s
same,EKG R Wave Voltage 1½ months,[1]; 1½ months (before treatment),0.38 ± 0.05 mV
same,EKG Stroke Index 1½ months,[1]; 1½ months (before treatment),47 ± 10%
same,Heart Rate 1½ months,[1]; 1½ months (before treatment),410 ± 11 beats/min
same,T Wave Voltage 1½ months,[1]; 1½ months (before treatment),0.21 ± 0.01 mV
same,Mortality %,[1],20%
same,Mortality %,[1]; listed as Inosine,20%
same,EKG QRS 12 months,[1]; 12 months,0.022 ± 0.001 s
same,EKG R Wave Voltage 12 months,[1]; 12 months,0.9 ± 0.09 mV
same,EKG Stroke Index 12 months,[1]; 12 months,34 ± 1.2%
same,Heart Rate 12 months,[1]; 12 months,420 ± 16 beats/min
same,T Wave Voltage 12 months,[1]; 12 months,0.29 ± 0.05 mV
same,left ventricular wall thicker than in Group I,[1]; 12 months,30%
same,relative weight of the heart higher than in Group I (control),[1]; 12 months,36%
same,QRS-T angle 120° to 180°,[1]; 12 months after surgery,5
same,Relative weight of Heart,[1]; 12 months after surgery,387 ± 9.5 mg/100 g
same,Thickness of Left Ventricular Wall,[1]; 12 months after surgery,3.9 ± 0.14 mm
same,VGC QRS Amplitude,[1]; 12 months after surgery,3.2 ± 0.12 mV
same,VGC QRS Area,[1]; 12 months after surgery,8.3 ± 1.1 cm^2
same,VGC QRS Not closed,[1]; 12 months after surgery,58%
same,VGC T Amplitude,[1]; 12 months after surgery,0.6 ± 0.01 mV
same,Working capacity (min) 1½ months,"[1]; forced swimming, 1½ months after surgery (treatment began on the 45th day)",43 ± 4.6 min
same,Working capacity (min) 12 months,"[1]; forced swimming, 12 months after surgery, 10.5 months of treatment",16 ± 1.2 min and 16 ± 1.3 min
same,"appearance of the myocardium, light micrographs (FIG. 6)",[1]; haemotoxylin-eosin stained sections,normal appearance
same,rats that died during the experiment,"[1]; of 15 rats per group, untreated stenosis 8",3 rats
same,development of cardiac eccentric hypertrophy,[1]; prolonged administration,prevented development of cardiac eccentric hypertrophy
same,"ultrastructure of left ventricular myocardium, mitochondria (FIG. 7)","[1]; rat, in vivo",normal sized mitochondria
same,critical heart weight enhanced by,[1]; versus critical weight of rats with the same body weight,16%
